Experimental findings from ChEMBL document CHEMBL3044737, “Synthesis of biotinylated 18-glycyrrhetinic acid and its effect on tumor cells activity” (Med Chem Res, 2009) are described below.

Series [1] relates to B16. The experiment in a line: Cytotoxicity against Mus musculus (mouse) B16 cells assessed as reduction of cell number up to 250 umol/L after 12 hr by MTT assay. Type of series: functional, cell-based.
The test system of series [2] is B16. Briefly: Cytotoxicity against Mus musculus (mouse) B16 cells assessed as reduction of cell number at 50 umol/L after 12 hr by MTT assay. Type of series: functional, cell-based. A general note: Tetrazolium assays rely on reduction of a dye to a coloured formazan, in cell work by metabolically active cells.
The test system of series [3] is Bel-7402. Briefly: Cytotoxicity against Homo sapiens (human) Bel7402 cells assessed as reduction of cell number at 50 umol/L after 12 hr by MTT assay. The class given is functional, cell-based.
Series [4] is described as follows: Stability of the compound in RPMI-1640 medium at 100 uM after 6 days. Type of series: physicochemical. The settings on record: 144 h.
Series [5] has as its system Bel-7402. The experiment in a line: Cytotoxicity against Homo sapiens (human) Bel7402 cells assessed as reduction of cell number up to 250 umol/L after 12 hr by MTT assay. Type of series: functional, cell-based.
Series [6] is described as follows: Stability of the compound in water at 100 uM after 24 hr. The class given is physicochemical. Particulars: buffer.
For series [7], the system named is B16. Briefly: Cytotoxicity against Mus musculus (mouse) B16 cells assessed as reduction of cell number after 12 hr by MTT assay. Particulars: B16, 12 h. The class given is functional, cell-based.
The test system of series [8] is Bel-7402. The experiment in a line: Cytotoxicity against Homo sapiens (human) Bel7402 cells assessed as reduction of cell number after 12 hr by MTT assay. The class given is functional, cell-based. The settings on record: Bel-7402, 12 h.

Each structure is given as a SMILES string. Activity calls are given as the source filed them. No cut-off for these calls is given here.

For `CC1(C)[C@@H](O)CC[C@]2(C)[C@H]3C(=O)C=C4[C@@H]5C[C@@](C)(C(=O)O)CC[C@]5(C)CC[C@@]4(C)[C@]3(C)CC[C@@H]12` [ENOXOLONE], the result in series [1] and in series [5] was Active. Moreover, the outcome in series [2] and in series [3] was inactive. In addition, the Stability entry in series [4] is “Stable”; in series [6] it was “Unstable”.

Turning to `CC1(C)[C@@H](O)CC[C@]2(C)[C@H]3C(=O)C=C4[C@@H]5C[C@@](C)(C(=O)NCCCCCCNC(=O)CCCC[C@@H]6SC[C@@H]7NC(=O)N[C@@H]76)CC[C@]5(C)CC[C@@]4(C)[C@]3(C)CC[C@@H]12`, the values for the IC50 in series [7] and in series [8] were 170 µM and 175 µM, respectively. Further, the result in series [1] and in series [5] was Active. Also, the result in series [2] and in series [3] was inactive. Further, the Stability entry in series [4] and in series [6] was “Stable” in each case.
